Assay results from PMC9374667 (Communications Biology, 2022).
Several values for one entry are separate records, joined by “and”; a condition that tells them apart may be missing. Equal values may be shown once.

Columns and labels:
TBK1 [1] = assay: RT-qPCR of Tbk1 in eWAT and BAT; format: in vivo; conditions: db/db mice, both doses of BJ
Text: Total RNA was isolated from 3T3-L1 cells and adipose tissue homogenates using Trizol reagent (Invitrogen, Carlsbad, CA, USA). RNA concentration and purity were examined at 260/280 nm using a nanodrop spectrophotometer (NanoDrop One, Thermo Fisher Scientific, USA). The total RNA was reverse transcribed to cDNA using the EasyScript All-in-One First-Strand cDNA Synthesis SuperMix for qPCR kit (TransGen Biotech, Beijing, China). The quantitative reverse transcription polymerase chain reaction was performed using TransStart Top Green qPCR SuperMix (TransGen Biotech, Beijing, China) and an Applied Biosystems 7500 RealTime PCR System (Life Technologies, USA). Relative expression levels were normalized to gapdh expression and quantified using the 2^-ΔΔCt method. The primers were synthesized by Shanghai Sangon Biotech, and the detailed primer sequences were shown in Supplementary Table 5 in the supplementary materials.

[2] = test system: IKKε, TBK1, p-TBK1, UCP1, p-AMPKα; assay: Western blotting of eWAT; format: in vivo; conditions: db/db mice
Description: The adipose tissue or 3T3-L1 adipocytes were homogenized by ultrasound in an ice‐cold RIPA lysis buffer containing 1% PMSF and centrifuged at 12,000 × g at 4°C for 15 min to collect the supernatant. The BCA protein assay kit (Beyotime, Shanghai, China) was used to detect the total protein concentration. Proteins (20-30 μg) of the sample were separated by 10% SDS-PAGE gel and transferred onto polyvinylidene difluoride (PVDF) membranes. Then the PVDF membranes were blocked in 5% skim milk powder in TBS containing 1% Tween-20 (TBST) for 2 h at room temperature and washed with TBST for 3 times. The membranes were incubated with the appropriate primary antibody, IKKε (1:1000 dilution), TBK1 (1:1000 dilution), p-TBK1 Ser172 (1:1000 dilution), p-AMPKα Thr172 (1:1000 dilution), UCP1 (1:1000 dilution), and GAPDH (1:1000 dilution) in the blocking buffer solution at 4 °C overnight. After washing, the membranes were incubated with horseradish peroxidase-conjugated secondary antibodies (in 5% skim milk powder) for 1 h at room temperature. Finally, the membranes were treated with enhanced chemiluminescence agents (Tanon, Shanghai, China) and the signals were monitored using the Tanon 5200 multi chemiluminescent imaging system (Tanon, Shanghai, China).

TBK1 [3] = target: T1, TBK1 (Mus musculus, UniProt Q9WUN2); assay: 3T3-L1 adipocytes transfected with TBK1 plasmid (western blotting, immunofluorescence); format: cell-based, Murine; design: host or cells: differentiated 3T3-L1 adipocytes (Lipofectamine 2000); TBK1 (western blotting, Figure 8a) / p-TBK1 (western blotting, Figure 8b) / p-AMPKα (western blotting, Figure 8c) / UCP1 (western blotting, Figure 8d): scale not given here; conditions: for Mean Intensity: 2μg TBK1 + 10μM BJ, individual replicates
T1 sequence (Q9WUN2 1-729): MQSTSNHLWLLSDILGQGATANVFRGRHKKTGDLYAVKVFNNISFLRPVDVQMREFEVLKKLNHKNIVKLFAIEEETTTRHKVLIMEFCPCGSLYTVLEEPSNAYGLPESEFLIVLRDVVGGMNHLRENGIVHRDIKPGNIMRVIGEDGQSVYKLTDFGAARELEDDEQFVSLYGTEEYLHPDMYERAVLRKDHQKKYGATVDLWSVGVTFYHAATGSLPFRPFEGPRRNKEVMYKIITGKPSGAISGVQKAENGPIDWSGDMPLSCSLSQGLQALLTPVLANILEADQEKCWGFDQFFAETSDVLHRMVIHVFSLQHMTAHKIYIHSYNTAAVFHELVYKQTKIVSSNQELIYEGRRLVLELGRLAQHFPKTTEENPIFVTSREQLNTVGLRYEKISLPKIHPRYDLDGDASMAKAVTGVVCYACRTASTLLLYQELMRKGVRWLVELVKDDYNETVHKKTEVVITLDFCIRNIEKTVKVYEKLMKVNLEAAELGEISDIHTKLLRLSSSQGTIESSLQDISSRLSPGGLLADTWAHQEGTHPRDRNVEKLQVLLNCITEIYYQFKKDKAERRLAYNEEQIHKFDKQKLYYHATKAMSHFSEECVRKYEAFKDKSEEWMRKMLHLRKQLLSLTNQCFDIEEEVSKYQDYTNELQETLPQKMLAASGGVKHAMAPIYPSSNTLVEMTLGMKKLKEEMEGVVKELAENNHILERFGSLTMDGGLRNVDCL
Description: […] The 3T3-L1 adipocytes were washed with PBS for 3 times, fixed with 4% paraformaldehyde solution for 30 min, and then washed again for 3 times. […] The cells were then incubated overnight at 4 °C with the appropriate primary antibodies (1:100 dilution). The next day, the 3T3-L1 adipocytes were washed and incubated at room temperature with goat anti-rabbit secondary antibody or goat anti-mouse secondary antibody (1:1000 dilution) for 2 h and washed with PBS for 3 times. The nuclei were stained with DAPI. […] Fluorescence images were taken using a laser confocal microscope (SP8, Leica, Germany). At least four images per section were acquired for quantification, and the mean intensity were evaluated using ImageJ. The adipose tissue or 3T3-L1 adipocytes were homogenized by ultrasound in an ice-cold RIPA lysis buffer containing 1% PMSF and centrifuged at 12,000 × g at 4°C for 15 min to collect the supernatant. The BCA protein assay kit (Beyotime, Shanghai, China) was used to detect the total protein concentration. Proteins (20-30 μg) of the sample were separated by 10% SDS-PAGE gel and transferred onto polyvinylidene difluoride (PVDF) membranes. Then the PVDF membranes were blocked in 5% skim milk powder in TBS containing 1% Tween-20 (TBST) for 2 h at room temperature and washed with TBST for 3 times. […] After washing, the membranes were incubated with horseradish peroxidase-conjugated secondary antibodies (in 5% skim milk powder) for 1 h at room temperature. Finally, the membranes were treated with enhanced chemiluminescence agents (Tanon, Shanghai, China) and the signals were monitored using the Tanon 5200 multi chemiluminescent imaging system (Tanon, Shanghai, China).

[4] = 3T3-L1 adipocytes transfected with TBK1 plasmid, 10 μM BJ, vs TBK1 transfection

CC(C)Cc1ccc(C(C)C(=O)[O-])cc1.COc1ccc2cc3[n+](cc2c1OC)CCc1cc2c(cc1-3)OCO2.O.O.O.O [BJ, berberine-ibuprofen] was tested, and the “Tbk1 mRNA expression in BAT” value (TBK1 [1]) was “had no effect”, the “mRNA level of TBK1 (Tbk1) in eWAT” value (TBK1 [1]) was “significantly reduced” and the “Expression of UCP1 and phosphorylation of TBK1 at Ser172 in eWAT” value [2] was “increased”. The “Protein levels of IKKε and TBK1 in eWAT” value ([2]; both doses of BJ, western blotting) was “significantly reduced”, the “AMPKα Thr172 phosphorylation (p-AMPKα) in eWAT” value ([2]; inhibited in db/db eWAT) was “restored” and the “TBK1 (western blotting, Figure 8a)” value (TBK1 [3]; 2μg TBK1+10μM BJ) was 0.5408 and 0.448 and 0.5761. For the same compound, the “UCP1 (western blotting, Figure 8d)” value (TBK1 [3]; 2μg TBK1+10μM BJ) was 0.7389 and 0.5561 and 0.5877, the “p-AMPKα (western blotting, Figure 8c)” value (TBK1 [3]; 2μg TBK1+10μM BJ) was 0.3928 and 0.3723 and 0.348 and the “p-TBK1 (western blotting, Figure 8b)” value (TBK1 [3]; 2μg TBK1+10μM BJ) was 0.5922 and 0.4 and 0.4766. For the same compound, the “TBK1 (western blotting, Figure 8a)” value (TBK1 [3]; 10μM BJ) was 0.38 and 0.387 and 0.3646, the “UCP1 (western blotting, Figure 8d)” value (TBK1 [3]; 10μM BJ) was 0.5655 and 0.6018 and 0.6331 and the “p-AMPKα (western blotting, Figure 8c)” value (TBK1 [3]; 10μM BJ) was 0.4524 and 0.4108 and 0.3523. The “p-TBK1 (western blotting, Figure 8b)” value (TBK1 [3]; 10μM BJ) was 0.5028 and 0.4045 and 0.6995, the “Phosphorylation of TBK1 at Ser172” value (TBK1 [3]; 3T3-L1 adipocytes transfected with TBK1 plasmid, 10 μM BJ) was “increased the phosphorylation of TBK1 at Ser172” and the “Phosphorylation of AMPKα Thr172 and UCP1 protein levels” value (TBK1 [3]; [4]) was “increased the phosphorylation of AMPKα Thr172 and increased the UCP1 protein levels”. For the same compound, the TBK1 protein levels (TBK1 [3]; [4]) was “markedly reduced the TBK1 protein levels”, the “Mean Intensity” value (TBK1 [3]; Figure S11c) was 20.873 A.U. and 18.04 A.U. and 17.203 A.U. and 19.263 A.U. and 18.463 A.U. and 18.776 A.U. and 23.056 A.U. and 11.015 A.U. and 23.907 A.U. and 21.41 A.U. and 21.836 A.U. and 20.009 A.U and the “Mean Intensity” value (TBK1 [3]; Figure S11g) was 11.659 A.U. and 7.08 A.U. and 13.692 A.U. and 12.377 A.U. and 10.165 A.U. and 17.942 A.U. and 13.51 A.U. and 14.616 A.U. and 14.87 A.U. and 10.529 A.U. and 9.155 A.U. and 10.462 A.U. The “Mean Intensity” value (TBK1 [3]; Figure S11d) was 20.305 A.U. and 17.417 A.U. and 18.699 A.U. and 21.221 A.U. and 16.857 A.U. and 15.382 A.U. and 18.398 A.U. and 14.495 A.U. and 16.691 A.U. and 21.635 A.U. and 11.895 A.U. and 12.802 A.U and the “Mean Intensity” value (TBK1 [3]; sheet Figure S11h) was 18.036 A.U. and 17.064 A.U. and 12.941 A.U. and 17.572 A.U. and 15.135 A.U. and 12.981 A.U. and 16.45 A.U. and 12.776 A.U. and 13.679 A.U. and 13.503 A.U. and 12.749 A.U. and 17.882 A.U.
